Measured values taken from ChEMBL document CHEMBL1201862, “PubChem BioAssay data set” (2004).
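Assay format: 96-well plates, 48-hour exposure. The concentration for 50% growth inhibition is given as GI50.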 Calls of active or inactive are those of the source. No stated cut-off is given here; in the data, active = GI50 up to about 1.1 µM and inactive = higher.

Experiments:
Experiment in all cases: NCI anticancer screen, dose series, 48 h
[1] = system: HCT-116
[2] = system: DMS-114
[3] = system: SF-295
[4] = system: SK-MEL-28
[5] = system: 786-0
[6] = system: HOP-62
[7] = system: SK-MEL-5
[8] = system: A498
[9] = system: MOLT-4
[10] = system: SR
[11] = system: CAKI-1
[12] = system: Malme-3M
[13] = system: DLD-1
[14] = system: K562
[15] = system: KM12
[16] = system: LXFL 529
[17] = system: HCC 2998
[18] = system: SNB-19
[19] = system: SF-539
[20] = system: UACC-62
[21] = system: M19-MEL
[22] = system: OVCAR-3
[23] = system: OVCAR-8
[24] = system: IGROV-1
[25] = system: NCI-H23
[26] = system: LOX IMVI
[27] = system: RXF 393
[28] = system: A549
[29] = system: DMS-273
[30] = system: CCRF-CEM
[31] = system: NCI-H226
[32] = system: UO-31
[33] = system: HOP-92
[34] = system: SNB-78
[35] = system: SW-620
[36] = system: ACHN
[37] = system: U-251
[38] = system: SK-OV-3
[39] = system: OVCAR-5
[40] = system: HT-29
[41] = system: SK-MEL-2
[42] = system: SN12C
[43] = system: HCT-15
[44] = system: UACC-257
[45] = system: OVCAR-4
[46] = system: HL-60
[47] = system: RPMI-8226
[48] = system: TK-10
[49] = system: SF-268
[50] = system: XF498
[51] = system: M14
[52] = system: SNB-75
[53] = system: NCI-H460
[54] = system: NCI-H522
[55] = system: EKVX
[56] = system: KM-20L2
[57] = system: COLO 205
[58] = system: HOP-18

Structure (SMILES): c1ccc(OCc2nnc3n2N=C(c2ccccc2)CS3)cc1
- GI50 [1]: > 100 µM (inactive)
- GI50 [2]: > 100 µM (inactive)
- GI50 [3]: > 100 µM (inactive)
- GI50 [4]: > 100 µM (inactive)
- GI50 [5]: > 100 µM (inactive)
- GI50 [6]: > 100 µM (inactive)
- GI50 [7]: > 100 µM (inactive)
- GI50 [8]: 53.5 µM (inactive)
- GI50 [9]: 71.6 µM (inactive)
- GI50 [10]: > 100 µM (inactive)
- GI50 [11]: 71 µM (inactive)
- GI50 [12]: > 100 µM (inactive)
- GI50 [13]: > 100 µM (inactive)
- GI50 [14]: > 100 µM (inactive)
- GI50 [15]: > 100 µM (inactive)
- GI50 [16]: > 100 µM (inactive)
- GI50 [17]: > 100 µM (inactive)
- GI50 [18]: > 100 µM (inactive)
- GI50 [19]: > 100 µM (inactive)
- GI50 [20]: > 100 µM (inactive)
- GI50 [21]: > 100 µM (inactive)
- GI50 [22]: > 100 µM (inactive)
- GI50 [23]: > 100 µM (inactive)
- GI50 [24]: > 100 µM (inactive)
- GI50 [25]: > 100 µM (inactive)
- GI50 [26]: > 100 µM (inactive)
- GI50 [27]: > 100 µM (inactive)
- GI50 [28]: > 100 µM (inactive)
- GI50 [29]: > 100 µM (inactive)
- GI50 [30]: > 100 µM (inactive)
- GI50 [31]: > 100 µM (inactive)
- GI50 [32]: 23 µM (inactive)
- GI50 [33]: > 100 µM (inactive)
- GI50 [34]: > 100 µM (inactive)
- GI50 [35]: > 100 µM (inactive)
- GI50 [36]: > 100 µM (inactive)
- GI50 [37]: > 100 µM (inactive)
- GI50 [38]: > 100 µM (inactive)
- GI50 [39]: > 100 µM (inactive)
- GI50 [40]: > 100 µM (inactive)
- GI50 [41]: 75.3 µM (inactive)
- GI50 [42]: > 100 µM (inactive)
- GI50 [43]: > 100 µM
- GI50 [44]: > 100 µM (inactive)
- GI50 [45]: > 100 µM (inactive)
- GI50 [46]: > 100 µM (inactive)
- GI50 [47]: > 100 µM (inactive)
- GI50 [48]: > 100 µM (inactive)
- GI50 [49]: > 100 µM (inactive)
- GI50 [50]: > 100 µM (inactive)
- GI50 [51]: > 100 µM (inactive)
- GI50 [52]: 33 µM (inactive)
- GI50 [53]: > 100 µM (inactive)
- GI50 [54]: 55.5 µM (inactive)

Structure (SMILES): COc1ccc(OC(C)C(=O)O)c2c1CCCC2=O (configuration not stated)
- GI50 [1]: > 100 µM (inactive)
- GI50 [2]: > 100 µM (inactive)
- GI50 [3]: > 100 µM (inactive)
- GI50 [4]: > 100 µM (inactive)
- GI50 [5]: > 100 µM (inactive)
- GI50 [6]: > 100 µM (inactive)
- GI50 [7]: > 100 µM (inactive)
- GI50 [8]: > 100 µM (inactive)
- GI50 [9]: > 100 µM (inactive)
- GI50 [10]: > 100 µM (inactive)
- GI50 [12]: > 100 µM (inactive)
- GI50 [13]: > 100 µM (inactive)
- GI50 [14]: > 100 µM (inactive)
- GI50 [15]: > 100 µM (inactive)
- GI50 [16]: > 100 µM (inactive)
- GI50 [17]: > 100 µM (inactive)
- GI50 [18]: > 100 µM (inactive)
- GI50 [19]: > 100 µM (inactive)
- GI50 [20]: > 100 µM (inactive)
- GI50 [21]: > 100 µM (inactive)
- GI50 [22]: > 100 µM (inactive)
- GI50 [23]: > 100 µM (inactive)
- GI50 [24]: > 100 µM (inactive)
- GI50 [25]: > 100 µM (inactive)
- GI50 [26]: > 100 µM (inactive)
- GI50 [27]: > 100 µM (inactive)
- GI50 [28]: > 100 µM (inactive)
- GI50 [29]: > 100 µM (inactive)
- GI50 [30]: > 100 µM (inactive)
- GI50 [31]: > 100 µM (inactive)
- GI50 [32]: > 100 µM (inactive)
- GI50 [34]: > 100 µM (inactive)
- GI50 [35]: > 100 µM (inactive)
- GI50 [36]: > 100 µM (inactive)
- GI50 [37]: > 100 µM (inactive)
- GI50 [55]: > 100 µM (inactive)
- GI50 [38]: > 100 µM (inactive)
- GI50 [56]: < 0.01 µM (active)
- GI50 [39]: > 100 µM (inactive)
- GI50 [40]: > 100 µM (inactive)
- GI50 [41]: > 100 µM (inactive)
- GI50 [42]: > 100 µM (inactive)
- GI50 [43]: > 100 µM
- GI50 [44]: > 100 µM (inactive)
- GI50 [45]: > 100 µM (inactive)
- GI50 [46]: > 100 µM (inactive)
- GI50 [47]: > 100 µM (inactive)
- GI50 [57]: > 100 µM (inactive)
- GI50 [48]: > 100 µM (inactive)
- GI50 [49]: > 100 µM (inactive)
- GI50 [50]: > 100 µM (inactive)
- GI50 [51]: > 100 µM (inactive)
- GI50 [52]: > 100 µM (inactive)
- GI50 [53]: > 100 µM (inactive)
- GI50 [54]: > 100 µM (inactive)

Structure (SMILES): Nc1cc(-c2ccccc2)nn1-c1nsc2ccccc12
- GI50 [1]: 73.3 µM (inactive)
- GI50 [2]: > 100 µM (inactive)
- GI50 [4]: 98.4 µM (inactive)
- GI50 [6]: 36.3 µM (inactive)
- GI50 [7]: > 100 µM (inactive)
- GI50 [58]: 0.573 µM (active)
- GI50 [9]: 55.1 µM (inactive)
- GI50 [10]: 53.2 µM (inactive)
- GI50 [14]: 40.4 µM (inactive)
- GI50 [15]: > 100 µM (inactive)
- GI50 [16]: > 100 µM (inactive)
- GI50 [17]: > 100 µM (inactive)
- GI50 [18]: > 100 µM (inactive)
- GI50 [19]: > 100 µM (inactive)
- GI50 [20]: > 100 µM (inactive)
- GI50 [21]: > 100 µM (inactive)
- GI50 [22]: 94.2 µM (inactive)
- GI50 [23]: 92.9 µM (inactive)
- GI50 [24]: 83.9 µM (inactive)
- GI50 [25]: > 100 µM (inactive)
- GI50 [26]: 97.5 µM (inactive)
- GI50 [27]: 14.4 µM (inactive)
- GI50 [28]: > 100 µM (inactive)
- GI50 [29]: 80.7 µM (inactive)
- GI50 [30]: 21.6 µM (inactive)
- GI50 [32]: > 100 µM (inactive)
- GI50 [33]: 63.4 µM (inactive)
- GI50 [34]: 68.1 µM (inactive)
- GI50 [35]: > 100 µM (inactive)
- GI50 [36]: > 100 µM (inactive)
- GI50 [37]: 54.2 µM (inactive)
- GI50 [55]: 47.8 µM (inactive)
- GI50 [56]: > 100 µM (inactive)
- GI50 [39]: > 100 µM (inactive)
- GI50 [40]: 91.2 µM (inactive)
- GI50 [41]: > 100 µM (inactive)
- GI50 [42]: 99.8 µM (inactive)
- GI50 [43]: 95.3 µM
- GI50 [44]: > 100 µM (inactive)
- GI50 [45]: > 100 µM (inactive)
- GI50 [46]: 61.8 µM (inactive)
- GI50 [47]: 76.9 µM (inactive)
- GI50 [57]: > 100 µM (inactive)
- GI50 [48]: > 100 µM (inactive)
- GI50 [49]: 58.9 µM (inactive)
- GI50 [51]: > 100 µM (inactive)
- GI50 [52]: 19.7 µM (inactive)
- GI50 [53]: 60.8 µM (inactive)
